We go through one compound from patent US5876761A, “Sustained release formulations of water soluble peptides” (Novartis AG, priority 1990, dated 1999).

A short description of this data set: Stability of octreotide pamoate in sustained release formulations. The note with it: in sustained release formulations (microparticles); hydrate. The class given is physicochemical.

“Also recorded” adds a separate entry of the source.

As for `C[C@@H](O)[C@@H]1NC(=O)[C@H](CCCCN)NC(=O)[C@@H](Cc2c[nH]c3ccccc23)NC(=O)[C@H](Cc2ccccc2)NC(=O)[C@@H](NC(=O)[C@H](N)Cc2ccccc2)CSSC[C@@H](C(=O)N[C@H](CO)[C@@H](C)O)NC1=O` [pamoate, octreotide pamoate hydrate], the stability entry was “excellent stability; also recorded: very stable”.
